Patent US20100303933A1, “IMMUNOPOTENTIATING COMPOSITION FROM LABISIA PUMILA EXTRACT” (HOLISTA BIOTECH SDN. BHD., priority 2007, published 2010)
Marks after values point to notes of the source that are not given here.

Legend:
[1] = tested on: reticuloendothelial system; experiment: Phagocytic response in vivo: clearance of carbon particles from circulation; parameters: species or system mice; conditions: dose 2.5 mg/ml p.o. (Levamisole)
Experimental: The phagocytic function of the reticuloendothelial system was assayed in groups of six mice each by injecting i.v. 160 mg/kg of 1.6% suspension of gelatin stabilized carbon particles of […] size (Atal et al., 1986). Blood samples were collected before and at intervals varying between 2 to 90 min after carbon injection. An aliquot (10 μL) of blood samples were lysed with 2 mL of 0.1% acetic acid and the transparency determined spectrophotometrically at 675 nm (Uvikon 810, spectrophotometer, Kontron Ltd, Switzerland) as per the method of Hudson and Hay (1980).

skin allograft = experiment: Skin allograft rejection (CMI response); assay type: in vivo, mice; conditions: 2.5 mg/kg p.o. (Levamisole)
Experimental: Skin allograft rejection: Mice were employed for the skin transplantation that were administered LPPM/A003 daily for 7 days and the graft rejection time (GRT) was recorded by daily observation of the epithelial survival.

[2] = tested on: peritoneal murine macrophages; experiment: Phagocytic response in vitro: heat killed Candida albicans ingested by peritoneal macrophages; assay type: cell-based; conditions: 10 μg/ml (Levamisole)
Experimental: Peritoneal macrophage cells (2×10^6) were allowed to adhere to glass cover slip for 90 minutes at 37° C. in 5% CO2 incubator (95% humidity). Simultaneously heat killed Candida albicans cells (100° C., 60 minutes) were opsonized for 90 minutes with 20% autologous serum to promote phagocytosis. The samples were washed with PBS and immediately evaluated microscopically. The percentage and average number of Candida albicans cells (heat killed) ingested by peritoneal murine macrophages was calculated.

SMILES: c1ccc([C@H]2CN3CCSC3=N2)cc1 [Levamisole]
- % Phagocytosis Ex -In vivo study Mean ± S.E. [1]: 1.78 ± 0.11 %
- Rejection Time Days Mean ± S.E. (skin allograft): 8.50 ± 0.22 days
- Graft Rejection (Percent) (skin allograft; ↑ hastened): 34.61^b ↑ Percent
- % Phagocytosis In vitro study Mean ± S.E. [2]: 43.11 ± 2.92 %
